Measured values from PubChem BioAssay (NCI).
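Interpolation was linear, between the two tested concentrations surrounding the appropriate level; five concentrations were tested over 48 hours in 96-well plates. TGI is the concentration that stops growth completely.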

How the values were obtained:
Assay in all cases: growth of human tumour cells (NCI), 48 h
[1] = test system: 786-0 renal
[2] = test system: A549 NSCLC
[3] = test system: ACHN renal
[4] = test system: BT-549 breast
[5] = test system: CCRF-CEM leukemia
[6] = test system: COLO 205 colon
[7] = test system: DU-145 prostate
[8] = test system: EKVX NSCLC
[9] = test system: HCC-2998 colon
[10] = test system: HCT-116 colon
[11] = test system: HCT-15 colon
[12] = test system: HOP-62 NSCLC
[13] = test system: HOP-92 NSCLC
[14] = test system: HT29 colon
[15] = test system: IGROV1 ovarian
[16] = test system: K-562 leukemia
[17] = test system: KM12 colon
[18] = test system: LOX IMVI melanoma
[19] = test system: M14 melanoma
[20] = test system: MCF7 breast
[21] = test system: MDA-MB-231 breast
[22] = test system: MDA-MB-435
[23] = test system: MDA-N
[24] = test system: MOLT-4 leukemia
[25] = test system: NCI-H23 lung
[26] = test system: NCI-H522 lung
[27] = test system: NCI/ADR-RES ovarian
[28] = test system: OVCAR-3 ovarian
[29] = test system: OVCAR-4 ovarian
[30] = test system: OVCAR-5 ovarian
[31] = test system: OVCAR-8 ovarian
[32] = test system: PC-3 prostate
[33] = test system: RPMI-8226 leukemia
[34] = test system: RXF 393 renal
[35] = test system: SF-268 CNS
[36] = test system: SF-295 CNS
[37] = test system: SF-539 CNS
[38] = test system: SK-MEL-2 melanoma
[39] = test system: SK-MEL-28 melanoma
[40] = test system: SK-MEL-5 melanoma
[41] = test system: SK-OV-3 ovarian
[42] = test system: SN12C renal
[43] = test system: SNB-19 CNS
[44] = test system: SNB-75 CNS
[45] = test system: SW-620 colon
[46] = test system: TK-10 renal
[47] = test system: U251 CNS
[48] = test system: UACC-257 melanoma
[49] = test system: UACC-62 melanoma
[50] = test system: UO-31 renal
[51] = test system: CAKI-1 renal
[52] = test system: HL-60(TB) leukemia
[53] = test system: NCI-H460 lung
[54] = test system: T-47D breast
[55] = test system: HS 578T breast
[56] = test system: MALME-3M melanoma
[57] = test system: NCI-H226 lung
[58] = test system: SR leukemia
[59] = test system: A498 renal

Cc1ccc(-c2n[nH]c(Cc3nc(-c4ccc(C)cc4)n[nH]3)n2)cc1
TGI [1]: > 100 µM | TGI [2]: > 100 µM | TGI [3]: > 100 µM | TGI [4]: > 100 µM | TGI [5]: > 100 µM | TGI [6]: > 100 µM | TGI [7]: > 100 µM | TGI [8]: > 100 µM | TGI [9]: > 100 µM | TGI [10]: > 100 µM | TGI [11]: > 100 µM | TGI [12]: > 100 µM | TGI [13]: > 100 µM | TGI [14]: > 100 µM | TGI [15]: > 100 µM | TGI [16]: > 100 µM | TGI [17]: > 100 µM | TGI [18]: > 100 µM | TGI [19]: > 100 µM | TGI [20]: > 100 µM | TGI [21]: > 100 µM | TGI [22]: > 100 µM | TGI [23]: > 100 µM | TGI [24]: > 100 µM | TGI [25]: > 100 µM | TGI [26]: > 100 µM | TGI [27]: > 100 µM | TGI [28]: > 100 µM | TGI [29]: > 100 µM | TGI [30]: > 100 µM | TGI [31]: > 100 µM | TGI [32]: > 100 µM | TGI [33]: > 100 µM | TGI [34]: > 100 µM | TGI [35]: > 100 µM | TGI [36]: > 100 µM | TGI [37]: > 100 µM | TGI [38]: > 100 µM | TGI [39]: > 100 µM | TGI [40]: > 100 µM | TGI [41]: > 100 µM | TGI [42]: > 100 µM | TGI [43]: > 100 µM | TGI [44]: > 100 µM | TGI [45]: > 100 µM | TGI [46]: > 100 µM | TGI [47]: 33.8 µM | TGI [48]: > 100 µM | TGI [49]: > 100 µM | TGI [50]: > 100 µM

NC1CC(=O)c2cscc21 (configuration not stated)
TGI [1]: 28.4 µM | TGI [2]: 41.7 µM | TGI [4]: > 100 µM | TGI [51]: 29.3 µM | TGI [5]: 38.2 µM | TGI [6]: 52 µM | TGI [7]: > 100 µM | TGI [8]: > 100 µM | TGI [10]: > 100 µM | TGI [11]: 88.5 µM | TGI [52]: 33.3 µM | TGI [12]: > 100 µM | TGI [13]: 49.6 µM | TGI [14]: > 100 µM | TGI [15]: > 100 µM | TGI [16]: > 100 µM | TGI [17]: 43.1 µM | TGI [18]: > 100 µM | TGI [19]: > 100 µM | TGI [21]: > 100 µM | TGI [22]: 64.2 µM | TGI [23]: > 100 µM | TGI [24]: > 100 µM | TGI [25]: > 100 µM | TGI [53]: > 100 µM | TGI [27]: > 100 µM | TGI [28]: 34.8 µM | TGI [29]: > 100 µM | TGI [30]: > 100 µM | TGI [31]: > 100 µM | TGI [32]: > 100 µM | TGI [33]: > 100 µM | TGI [34]: > 100 µM | TGI [36]: > 100 µM | TGI [37]: > 100 µM | TGI [38]: > 100 µM | TGI [39]: > 100 µM | TGI [40]: > 100 µM | TGI [41]: > 100 µM | TGI [42]: > 100 µM | TGI [43]: > 100 µM | TGI [44]: > 100 µM | TGI [45]: 37.4 µM | TGI [54]: 40.3 µM | TGI [46]: 33.6 µM | TGI [47]: > 100 µM | TGI [48]: > 100 µM | TGI [50]: 22.1 µM

CCCCS(=O)(=O)CCC(N)P(=O)(O)O (configuration not stated)
TGI [1]: > 100 µM | TGI [2]: > 100 µM | TGI [3]: > 100 µM | TGI [4]: > 100 µM | TGI [51]: > 100 µM | TGI [5]: > 100 µM | TGI [6]: > 100 µM | TGI [7]: > 100 µM | TGI [8]: > 100 µM | TGI [10]: > 100 µM | TGI [11]: > 100 µM | TGI [52]: > 100 µM | TGI [12]: > 100 µM | TGI [13]: > 100 µM | TGI [55]: > 100 µM | TGI [14]: > 100 µM | TGI [15]: > 100 µM | TGI [16]: > 100 µM | TGI [17]: > 100 µM | TGI [18]: > 100 µM | TGI [19]: > 100 µM | TGI [56]: > 100 µM | TGI [20]: > 100 µM | TGI [22]: > 100 µM | TGI [23]: > 100 µM | TGI [24]: > 100 µM | TGI [57]: > 100 µM | TGI [25]: > 100 µM | TGI [53]: > 100 µM | TGI [26]: > 100 µM | TGI [27]: > 100 µM | TGI [28]: > 100 µM | TGI [29]: > 100 µM | TGI [30]: > 100 µM | TGI [31]: > 100 µM | TGI [32]: > 100 µM | TGI [33]: > 100 µM | TGI [35]: > 100 µM | TGI [36]: > 100 µM | TGI [38]: > 100 µM | TGI [39]: > 100 µM | TGI [40]: > 100 µM | TGI [41]: > 100 µM | TGI [42]: > 100 µM | TGI [43]: > 100 µM | TGI [44]: > 100 µM | TGI [58]: > 100 µM | TGI [45]: > 100 µM | TGI [54]: > 100 µM | TGI [46]: > 100 µM | TGI [47]: > 100 µM | TGI [48]: > 100 µM | TGI [49]: > 100 µM | TGI [50]: > 100 µM

O=C(NC(=S)Nc1ccc(Br)cc1)c1ccc2c(c1)Sc1ccccc1S2
TGI [1]: 30.6 µM | TGI [59]: 36.8 µM | TGI [2]: 48.6 µM | TGI [3]: 34.2 µM | TGI [4]: 60.6 µM | TGI [51]: 38.2 µM | TGI [5]: 54.1 µM | TGI [6]: > 100 µM | TGI [7]: 32.4 µM | TGI [10]: 51 µM | TGI [11]: > 100 µM | TGI [52]: 42.7 µM | TGI [12]: 31 µM | TGI [13]: 32.5 µM | TGI [55]: 59.7 µM | TGI [14]: 95.1 µM | TGI [15]: 30.2 µM | TGI [16]: 24.5 µM | TGI [17]: 74.8 µM | TGI [18]: 61.4 µM | TGI [19]: 42.9 µM | TGI [56]: 48.5 µM | TGI [20]: > 100 µM | TGI [21]: 38.2 µM | TGI [22]: > 100 µM | TGI [23]: > 100 µM | TGI [24]: 26.7 µM | TGI [57]: 47.7 µM | TGI [25]: 45.4 µM | TGI [53]: 32.3 µM | TGI [26]: 52.6 µM | TGI [27]: 55.9 µM | TGI [28]: 41.2 µM | TGI [29]: 33.5 µM | TGI [30]: 40.2 µM | TGI [31]: 34.7 µM | TGI [32]: > 100 µM | TGI [35]: 46.4 µM | TGI [36]: 38.6 µM | TGI [37]: 53.5 µM | TGI [38]: 57.9 µM | TGI [39]: > 100 µM | TGI [40]: > 100 µM | TGI [41]: 33 µM | TGI [42]: 38.4 µM | TGI [43]: 54.4 µM | TGI [44]: 29.2 µM | TGI [58]: 35.5 µM | TGI [45]: > 100 µM | TGI [54]: 33.4 µM | TGI [46]: 30.9 µM | TGI [47]: 35 µM | TGI [48]: 54.5 µM | TGI [49]: 74.8 µM | TGI [50]: 26.6 µM
